# Like-named read-outs stand apart in the source and are kept apart here.
# Key:
# [1] = system: mice with CLP-induced sepsis; details: pre-treatment, cited from earlier work
# endotoxemic rats = details: pre-treatment; cited from earlier work
# [2] = cited from earlier work
# [3] = system: patients with septic shock and elevated adrenomedullin; assay: AdrenOSS-2 phase II clinical trial; format: in vivo, human
# Source text: AdrenOSS-2 is a double-blind, placebo-controlled, randomized, multicenter, proof of concept and dose-finding phase II clinical trial to investigate the safety, tolerability and efficacy of the N-terminal ADM antibody named Adrecizumab in patients with septic shock and elevated adrenomedullin (Geven et al. BMJ Open 2019; 9:e024475). In total, 301 patients with septic shock and bio-ADM concentration >70 pg/mL were randomized (2:1:1) to treatment with a single intravenous infusion over approximately 1 hour with either placebo (n=152), adrecizumab […] (n=72) or Adrecizumab […] (n=77). All-cause mortality within 28 (90) days after inclusion was 25.8% (34.8%). Mean age was 68.4 years and 61% were male. For the per protocol analysis, n=294 patients remained eligible, and 14-day all-cause mortality rate was 18.5%.
# Furthermore, different subpopulations of the cohort were analyzed. Main outcomes were 28-day mortality, change in Horovitz Index (PaO2/FiO2) (at 24 h/48 h/72 h), change in SOFA score (at 24 h/48 h/72 h) or change in respiratory SOFA score component (also based on PaO2/FiO2) (at 24 h/48 h/72 h). All p-values are 2-sided and a p-value of 0.20 should be considered significant.
# [4] = system: extreme-critically ill COVID-19 patients with acute respiratory distress syndrome (ARDS); details: cited from earlier work
substance,measurement,setting,value
"Adrecizumab: humanized N-terminal anti-ADM monoclonal antibody, heavy chain SEQ ID NO: 35, light chain SEQ ID NO: 36",renal vascular leakage,[1]; mice with CLP-induced sepsis,attenuated
same,7-day survival,[1]; repeated dose administration (control 0%),40%
same,7-day survival,[1]; single dose administration (control 10%),50%
same,renal vascular leakage,endotoxemic rats,attenuated
same,circulating ADM following administration,[2]; animal and human data,"potent, dose-dependent increase"
same,"safety and tolerability, serious adverse events",[2]; phase I study,no serious adverse events were observed
same,change in Horovitz-Index,"[3]; Horovitz-Index <170 and mechanical ventilation (n=48), after 24 hours (0.48)",trended to be higher
same,change in SOFA score vs placebo,"[3]; Horovitz-Index <170 and mechanical ventilation (n=48), after 24 hours, p=0.032",significantly lower
same,change in SOFA score vs placebo,"[3]; Horovitz-Index <170 and mechanical ventilation (n=48), after 48 hours, p=0.012",significantly lower
same,"change in Horovitz-Index, mean increase","[3]; Horovitz-Index <170 and mechanical ventilation (n=48), after 48 hours, p=0.09",64.2
same,change in SOFA score vs placebo,"[3]; Horovitz-Index <170 and mechanical ventilation (n=48), after 72 hours, p=0.028",significantly lower
same,"change in Horovitz-Index, mean increase","[3]; Horovitz-Index <170 and mechanical ventilation (n=48), after 72 hours, p=0.11",66.4
same,28-day mortality vs placebo,"[3]; Horovitz-Index <170 and mechanical ventilation at baseline (n=48), p=0.37",trended to be lower
same,change in SOFA score vs placebo,"[3]; mechanical ventilation at baseline (n=161), after 24 hours, p=0.002",significantly lower
same,change in respiratory SOFA score vs placebo,"[3]; mechanical ventilation at baseline (n=161), after 24 hours, p=0.021",significantly lower
same,change in Horovitz-Index,"[3]; mechanical ventilation at baseline (n=161), after 48 hours, p=0.007",significantly higher
same,change in respiratory SOFA score vs placebo,"[3]; mechanical ventilation at baseline (n=161), after 48 hours, p=0.011",significantly lower
same,change in SOFA score vs placebo,"[3]; mechanical ventilation at baseline (n=161), after 48 hours, p=0.109",significantly lower
same,change in respiratory SOFA score vs placebo,"[3]; mechanical ventilation at baseline (n=161), after 72 hours, p=0.066",significantly lower
same,change in Horovitz-Index,"[3]; mechanical ventilation at baseline (n=161), after 72 hours, p=0.087",significantly higher
same,change in SOFA score vs placebo,"[3]; mechanical ventilation at baseline (n=161), after 72 hours, p=0.31",trended to be lower
same,"change in Horovitz-Index, mean increase","[3]; mechanical ventilation at baseline (n=161), at 24 hours, p=0.155",56.2
same,28-day mortality vs placebo,"[3]; mechanical ventilation at baseline (n=161), p=0.157",significantly lower
same,change in SOFA score vs placebo,"[3]; shock patients with ALI/ARDS (n=80), after 24 hours, p=0.005",significantly lower
same,change in respiratory SOFA score vs placebo,"[3]; shock patients with ALI/ARDS (n=80), after 24 hours, p=0.26",trended to be lower
same,change in SOFA score vs placebo,"[3]; shock patients with ALI/ARDS (n=80), after 48 hours, p=0.025",significantly lower
same,change in respiratory SOFA score vs placebo,"[3]; shock patients with ALI/ARDS (n=80), after 48 hours, p=0.09",significantly lower
same,change in SOFA score vs placebo,"[3]; shock patients with ALI/ARDS (n=80), after 72 hours, p=0.38",trended to be lower
same,mortality,[4]; compared with mortality calculated by the SOFA score,lower than expected
same,PaO2/FiO2,"[4]; single dose, within 12 days",increased
same,SOFA score and disease severity score,"[4]; single dose, within 12 days",decreased in five out of the seven surviving patients
same,"inflammatory parameters C-reactive protein, procalcitonin, and interleukin-6",[4]; single dose,decreased
